Laboratory results published in patent US12005034B2 (ALGOTHERAPEUTIX, priority 2017, dated 2024).

Experiments:
TRPV1 = molecular target: T1, TRPV1 (Mus musculus, UniProt Q704Y3); assay: Calcium mobilization in DRG neurons with TRPV1 antagonist or agonist; type: cell-based
T1 construct: calcium ion mobilization was investigated in primary cultures of mouse DRG neurons; endogenous in cells; host or cells: primary mouse DRG neurons
Protocol: (§1) For calcium mobilization measurements, 10 DRG cultures (two mice per culture) were washed with Hanks Balanced Salt Solution (HBSS, Thermo Fisher Scientific, Massachusetts, USA), and incubated in HBSS containing 1 μg/ml papain (Sigma Aldrich, Missouri, USA) and L-cysteine (pH 7.4, Sigma Aldrich) for 10 minutes at 37° C. […] Neurons were then mechanically dissociated. […] DRG neurons were incubated with HBSS containing 20 mM Hepes, […] fluo-4 acetoxymethyl (AM) ester (Thermo Fisher Scientific, Waltham, MA USA) and 0.02% pluronic acid for 30 min at 37° C. followed by an additional incubation for 30 min at room temperature. The medium was then discarded and replaced by HBSS. […] The effects of TRP channel agonists and antagonists on amitriptyline-induced calcium ion mobilization were then assessed as follows: neurons were incubated with either an antagonist for TRPV1 (10 μM AMG 9810, Sigma Aldrich) or an antagonist for TRPA1 (HCO30031; […] Sigma Aldrich). Neurons were imaged using an inverted microscope (Zeiss) and a 10×0.5 NA objective. […] Baseline fluorescence was determined for 0 to 10 seconds, and then fluorescence was measured from the 10th to the 65th second after the neurons were incubated with the drugs or controls. […] Variations in fluorescence intensity measured in each neuron were identified using Image J2 software.

C, Aδ and Aβ fibers = assay: Ex vivo single unit recordings, skin-saphenous nerve preparation, all fiber types; type: cell-based, mouse
Protocol: (§2) Adult male mice were anesthetized with isoflurane (4%) and sacrificed by severing of the carotid arteries. Skin-saphenous nerve preparations and single-fiber recordings were carried out. The saphenous nerve and the skin of the hind limb were carefully dissected and placed in a custom-designed organ chamber containing warm oxygenated synthetic interstitial fluid (SIF). […] The saphenous nerve was placed in an adjacent recording chamber filled with mineral oil, gently teased, and groups of nerve fibers were placed on a gold recording electrode in order to isolate single-unit activity. […] Cambridge Electronic Design Limited, UK). Spikes were discriminated off-line using the Spike2 software (Cambridge Electronic Design Limited, UK) and analyzed individually to avoid false positives. The mechanically evoked activity of single saphenous nerve fibers was first obtained in response to von Frey hair stimulations (Friedrich-Alexander University, Erlangen, Germany). Once a receptive field had been characterized, a patch of skin was isolated from the surrounding bath using a plastic minichamber (inner diameter: 0.8 cm) continuously superfused with buffer at 31° C. […] Conduction velocity was determined by electrically stimulating (Tungsten microelectrode: 10 mm ext/60 mm PI; FHC, USA) identified receptive fields with square wave pulses (0.1-0.5 ms, 7-15 V). […]

C fibers = assay: Ex vivo single unit recordings, skin-saphenous nerve preparation; type: cell-based, mouse
Protocol: (§3) Adult male mice were anesthetized with isoflurane (4%) and sacrificed by severing of the carotid arteries. Skin-saphenous nerve preparations and single-fiber recordings were carried out. The saphenous nerve and the skin of the hind limb were carefully dissected and placed in a custom-designed organ chamber containing warm oxygenated synthetic interstitial fluid (SIF). […] The saphenous nerve was placed in an adjacent recording chamber filled with mineral oil, gently teased, and groups of nerve fibers were placed on a gold recording electrode in order to isolate single-unit activity. […] Cambridge Electronic Design Limited, UK). Spikes were discriminated off-line using the Spike2 software (Cambridge Electronic Design Limited, UK) and analyzed individually to avoid false positives. The mechanically evoked activity of single saphenous nerve fibers was first obtained in response to von Frey hair stimulations (Friedrich-Alexander University, Erlangen, Germany). Once a receptive field had been characterized, a patch of skin was isolated from the surrounding bath using a plastic minichamber (inner diameter: 0.8 cm) continuously superfused with buffer at 31° C. The receptive field was then stimulated using von Frey mechanical probes mounted on the arm of a computer-controlled piezoelectric […]® controller; PI, Germany). Conduction velocity was determined by electrically stimulating (Tungsten microelectrode: 10 mm ext/60 mm PI; FHC, USA) identified receptive fields with square wave pulses (0.1-0.5 ms, 7-15 V). Axons were considered to be A-type when the conduction velocity was over 4 m/s. Fibers with a conduction velocity below 1 m/s were classified as C fibers.

Aβ fibers = assay: as above; type: cell-based, mouse
Protocol: as §3

Nav1.8 = molecular target: T2, Nav1.8 (Mus musculus, UniProt Q6QIY3); assay: Whole-cell patch-clamp of sodium currents in Nav1.9-/- DRG neurons; type: cell-based; details: holding potential −100 mV, cumulative 1 μM-1 mM; read-out: IC50, block of Nav1.8 current
T2 construct: The Nav1.8 current was recorded in Nav1.9−/− DRG neurons; endogenous in cells; host or cells: primary DRG neurons from Nav1.9-/- mice (C57Bl/6J background)

mouse DRG neurons = assay: Calcium mobilization in DRG neurons, fluo-4 calcium imaging; type: cell-based
Protocol: For calcium mobilization measurements, 10 DRG cultures (two mice per culture) were washed with Hanks Balanced Salt Solution (HBSS, Thermo Fisher Scientific, Massachusetts, USA), and incubated in HBSS containing 1 μg/ml papain (Sigma Aldrich, Missouri, USA) and L-cysteine (pH 7.4, Sigma Aldrich) for 10 minutes at 37° C. […] Neurons were then mechanically dissociated. […] DRG neurons were incubated with HBSS containing 20 mM Hepes, […] fluo-4 acetoxymethyl (AM) ester (Thermo Fisher Scientific, Waltham, MA USA) and 0.02% pluronic acid for 30 min at 37° C. followed by an additional incubation for 30 min at room temperature. The medium was then discarded and replaced by HBSS. […] The effects of TRP channel agonists and antagonists on amitriptyline-induced calcium ion mobilization were then assessed as follows: neurons were incubated with either an antagonist for TRPV1 (10 μM AMG 9810, Sigma Aldrich) or an antagonist for TRPA1 (HCO30031; […] Sigma Aldrich). Neurons were imaged using an inverted microscope (Zeiss) and a 10×0.5 NA objective. Images were acquired using a CCD camera (Zeiss) and Zen software (Zeiss). Acquisition parameters were kept constant during each experiment. Kinetic analysis was performed using 85 recordings (one per second). Baseline fluorescence was determined for 0 to 10 seconds, and then fluorescence was measured from the 10th to the 65th second after the neurons were incubated with the drugs or controls. At 65 seconds, 50 mM KCl was added to the cells in order to allow discrimination between neurons and glial cells. Variations in fluorescence intensity measured in each neuron were identified using Image J2 software.

[1] = in vivo; cited from earlier work
Aδ fibers = assay: Ex vivo single unit recordings, skin-saphenous nerve preparation; type: cell-based; details: Mus musculus, 10 min
Protocol: as §2

[2] = tested on: TTX-S Nav channels (Nav1.1 and Nav1.6); assay: Whole-cell patch-clamp of TTX-sensitive sodium currents in wild-type DRG neurons; type: cell-based, mouse; details: read-out: IC50, block of TTX-S Nav currents; holding potential −80 mV, touch mechanoreceptors
Protocol: (§4) Cultures of DRG were prepared from male mice anesthetized with isoflurane (4%, Piramal Critical Care) and sacrificed by severing of the carotid arteries. Cultures of dissociated DRG neurons were established from thoracolumbar DRG.
(§5) DRG for whole-cell patch-clamp recordings were incubated in Hanks balance salt solution (Invitrogen, France) containing 2 mg/ml of collagenase IA (Sigma, France) for approximately 45 minutes at 37° C. DRG were washed at least 10 times and then triturated with a fired polished glass Pasteur pipette. […]
(§6) Patch clamp recordings were made using borosilicate electrodes (Harvard Apparatus, Holliston, Massachusetts, USA) with a resistance of 2-3 MΩ when filled with an intracellular solution consisting of (in mM): 130 CsCl, 10 Hepes, 8 NaCl, 0.4 NaGTP, 4 MgATP, 1 MgCl2, 1 CaCl2 and 10 EGTA (adjusted to pH 7.3 with CsOH, ˜300 mOsm/L). […] Sodium currents were recorded individually. […] The Nav1.8 current was recorded in Nav1.9−/− DRG neurons, whereas the Nav1.9 current was recorded in Nav1.8−/− DRG neurons. […] Fast activating/inactivating TTX-sensitive Na+ currents (Nav1.1 and Nav1.6) in putative non-nociceptors were recorded in wild-type DRG neurons that had large cell membrane capacitance (Cm>60 pF) and lacked any TTX-resistant Na+ current components. […]

TRPA1 = molecular target: T3, TRPA1 (Mus musculus, UniProt Q8BLA8); assay: Calcium mobilization in DRG neurons with TRPA1 antagonist or agonist; type: cell-based
T3 construct: calcium ion mobilization was investigated in primary cultures of mouse DRG neurons; endogenous in cells; host or cells: primary mouse DRG neurons
Protocol: as §1

[3] = tested on: Nav channels in sensory neurons; assay: Whole-cell patch-clamp of sodium currents, all Nav channels tested; type: cell-based, mouse; details: 100 μM
Source text: Patch clamp recordings were made using borosilicate electrodes (Harvard Apparatus, Holliston, Massachusetts, USA) with a resistance of 2-3 MΩ when filled with an intracellular solution consisting of (in mM): 130 CsCl, 10 Hepes, 8 NaCl, 0.4 NaGTP, 4 MgATP, 1 MgCl2, 1 CaCl2 and 10 EGTA (adjusted to pH 7.3 with CsOH, ˜300 mOsm/L). […] Voltage-gated sodium ion currents were leak-subtracted using a P/6 protocol and voltage errors were minimized using 75-80% series resistance compensation. Cultured cells were perfused with the bath solution at flow rate of 5 mL/min. Recordings were made at room temperature (20-24° C.) using an Axopatch 200B amplifier (Axon Instruments, Boston, Massachusetts, USA), filtered at 1-2 kHz, and digitally sampled at 5-20 kHz. Sodium currents were recorded individually. […]. The Nav1.8 current was recorded in Nav1.9−/− DRG neurons, whereas the Nav1.9 current was recorded in Nav1.8−/− DRG neurons. Nav1.8−/− and Nav1.9−/− mice were generated from a C57B1/6J background. Fast activating/inactivating TTX-sensitive Na+ currents (Nav1.1 and Nav1.6) in putative non-nociceptors were recorded in wild-type DRG neurons that had large cell membrane capacitance (Cm>60 pF) and lacked any TTX-resistant Na+ current components. Nav1.7 recordings were made using the transfected HEK cells.

Nav1.9 = molecular target: T4, Nav1.9 (Mus musculus, UniProt Q9R053); assay: Whole-cell patch-clamp of sodium currents in Nav1.8-/- DRG neurons; type: cell-based; details: holding potential −100 mV, cumulative 1 μM-1 mM; read-out: IC50, block of Nav1.9 current
T4 construct: the Nav1.9 current was recorded in Nav1.8−/− DRG neurons; endogenous in cells; host or cells: primary DRG neurons from Nav1.8-/- mice (C57Bl/6J background)
Protocol: as §4, §5, §6

hNav1.7 = molecular target: T5, hNav1.7 (Homo sapiens, UniProt Q15858); assay: Whole-cell patch-clamp of sodium currents in hNav1.7-transfected HEK293T cells; type: cell-based; details: holding potential −80 mV, cumulative 1 μM-1 mM; read-out: IC50, block of Nav1.7 current
T5 construct: expressed in transfected cells; host or cells: HEK293T
Protocol: Human embryonic kidney 293T (HEK293T) cells were grown in DMEM containing 4.5 mg/ml glucose, 10% FBS, 50 units/ml penicillin and 50 μg/ml streptomycin. Cells were plated onto 12-mm round glass poly-D-lysine-coated coverslips placed in 24-well plates and transfected using lipofectamine 2000 (Invitrogen) according to the manufacturer's instructions. hNav1.7 and GFP plasmids were co-transfected at a concentration of 600 and 100 ng/ml, respectively. Experiments were conducted on cells 24-48 hours post-transfection.
as §6

[4] = Ex vivo study of percutaneous amitriptyline absorption, Frantz cell; type: in vitro ADME, human
neuropathic pain = details: topical, maximum dose used 5%; cited from earlier work
[5] = Mus musculus, 10 min, skin superfusion 10 min, 10-100 μM, read-out: IC50, inhibition of mechanically induced firing
[6] = Mus musculus, 10 min, 100 μM, 10 min application to the skin preparation, read-out: Mean inhibition of evoked firing

T1 sequence (Q704Y3 whole entry): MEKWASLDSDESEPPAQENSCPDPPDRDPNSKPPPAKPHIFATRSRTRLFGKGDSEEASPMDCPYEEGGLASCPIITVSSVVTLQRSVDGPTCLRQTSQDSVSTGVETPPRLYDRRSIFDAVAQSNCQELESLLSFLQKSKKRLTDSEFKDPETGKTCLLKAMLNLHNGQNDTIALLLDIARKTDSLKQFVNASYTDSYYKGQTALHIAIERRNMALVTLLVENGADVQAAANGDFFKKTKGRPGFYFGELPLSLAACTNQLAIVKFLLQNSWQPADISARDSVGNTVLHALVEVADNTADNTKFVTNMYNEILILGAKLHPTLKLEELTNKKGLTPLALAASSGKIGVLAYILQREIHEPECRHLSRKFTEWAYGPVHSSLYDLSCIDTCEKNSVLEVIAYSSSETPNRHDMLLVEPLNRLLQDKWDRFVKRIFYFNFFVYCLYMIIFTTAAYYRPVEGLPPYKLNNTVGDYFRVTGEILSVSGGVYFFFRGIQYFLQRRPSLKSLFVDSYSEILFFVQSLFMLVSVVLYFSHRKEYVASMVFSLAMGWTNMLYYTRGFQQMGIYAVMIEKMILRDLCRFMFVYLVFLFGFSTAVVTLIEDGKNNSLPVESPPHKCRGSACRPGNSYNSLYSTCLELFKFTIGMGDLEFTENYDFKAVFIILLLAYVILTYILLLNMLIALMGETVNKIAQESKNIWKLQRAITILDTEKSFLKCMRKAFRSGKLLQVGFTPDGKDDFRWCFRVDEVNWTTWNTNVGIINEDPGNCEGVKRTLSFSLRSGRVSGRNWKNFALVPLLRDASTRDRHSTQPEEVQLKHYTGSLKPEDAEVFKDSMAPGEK
T3 sequence (Q8BLA8 whole entry): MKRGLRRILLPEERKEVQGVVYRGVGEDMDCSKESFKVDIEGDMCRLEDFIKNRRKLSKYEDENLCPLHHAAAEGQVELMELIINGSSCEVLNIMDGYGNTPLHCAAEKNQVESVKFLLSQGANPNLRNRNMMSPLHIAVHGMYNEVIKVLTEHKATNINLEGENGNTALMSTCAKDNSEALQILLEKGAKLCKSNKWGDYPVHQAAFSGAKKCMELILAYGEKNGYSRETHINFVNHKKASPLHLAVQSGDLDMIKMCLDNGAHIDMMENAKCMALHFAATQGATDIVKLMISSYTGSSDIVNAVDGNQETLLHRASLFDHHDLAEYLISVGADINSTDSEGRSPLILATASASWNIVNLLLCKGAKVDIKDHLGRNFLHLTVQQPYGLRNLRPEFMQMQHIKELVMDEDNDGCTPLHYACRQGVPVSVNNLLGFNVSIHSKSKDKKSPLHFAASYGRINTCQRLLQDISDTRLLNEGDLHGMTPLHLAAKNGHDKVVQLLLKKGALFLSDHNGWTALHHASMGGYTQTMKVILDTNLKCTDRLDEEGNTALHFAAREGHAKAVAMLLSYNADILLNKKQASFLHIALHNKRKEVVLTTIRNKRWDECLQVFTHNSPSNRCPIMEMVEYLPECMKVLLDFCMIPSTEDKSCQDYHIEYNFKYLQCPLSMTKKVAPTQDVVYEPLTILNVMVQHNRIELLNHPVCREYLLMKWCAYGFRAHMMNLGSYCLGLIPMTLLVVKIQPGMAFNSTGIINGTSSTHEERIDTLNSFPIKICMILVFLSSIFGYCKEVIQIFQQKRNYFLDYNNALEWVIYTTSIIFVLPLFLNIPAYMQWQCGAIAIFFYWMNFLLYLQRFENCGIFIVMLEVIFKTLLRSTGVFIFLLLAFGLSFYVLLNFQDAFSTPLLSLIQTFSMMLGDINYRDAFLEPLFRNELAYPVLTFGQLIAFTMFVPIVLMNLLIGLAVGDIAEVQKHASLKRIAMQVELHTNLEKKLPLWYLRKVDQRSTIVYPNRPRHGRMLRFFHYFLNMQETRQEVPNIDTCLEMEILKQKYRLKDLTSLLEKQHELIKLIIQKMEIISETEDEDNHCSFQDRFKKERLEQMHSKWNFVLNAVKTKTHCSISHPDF
T2 sequence (Q6QIY3 whole entry): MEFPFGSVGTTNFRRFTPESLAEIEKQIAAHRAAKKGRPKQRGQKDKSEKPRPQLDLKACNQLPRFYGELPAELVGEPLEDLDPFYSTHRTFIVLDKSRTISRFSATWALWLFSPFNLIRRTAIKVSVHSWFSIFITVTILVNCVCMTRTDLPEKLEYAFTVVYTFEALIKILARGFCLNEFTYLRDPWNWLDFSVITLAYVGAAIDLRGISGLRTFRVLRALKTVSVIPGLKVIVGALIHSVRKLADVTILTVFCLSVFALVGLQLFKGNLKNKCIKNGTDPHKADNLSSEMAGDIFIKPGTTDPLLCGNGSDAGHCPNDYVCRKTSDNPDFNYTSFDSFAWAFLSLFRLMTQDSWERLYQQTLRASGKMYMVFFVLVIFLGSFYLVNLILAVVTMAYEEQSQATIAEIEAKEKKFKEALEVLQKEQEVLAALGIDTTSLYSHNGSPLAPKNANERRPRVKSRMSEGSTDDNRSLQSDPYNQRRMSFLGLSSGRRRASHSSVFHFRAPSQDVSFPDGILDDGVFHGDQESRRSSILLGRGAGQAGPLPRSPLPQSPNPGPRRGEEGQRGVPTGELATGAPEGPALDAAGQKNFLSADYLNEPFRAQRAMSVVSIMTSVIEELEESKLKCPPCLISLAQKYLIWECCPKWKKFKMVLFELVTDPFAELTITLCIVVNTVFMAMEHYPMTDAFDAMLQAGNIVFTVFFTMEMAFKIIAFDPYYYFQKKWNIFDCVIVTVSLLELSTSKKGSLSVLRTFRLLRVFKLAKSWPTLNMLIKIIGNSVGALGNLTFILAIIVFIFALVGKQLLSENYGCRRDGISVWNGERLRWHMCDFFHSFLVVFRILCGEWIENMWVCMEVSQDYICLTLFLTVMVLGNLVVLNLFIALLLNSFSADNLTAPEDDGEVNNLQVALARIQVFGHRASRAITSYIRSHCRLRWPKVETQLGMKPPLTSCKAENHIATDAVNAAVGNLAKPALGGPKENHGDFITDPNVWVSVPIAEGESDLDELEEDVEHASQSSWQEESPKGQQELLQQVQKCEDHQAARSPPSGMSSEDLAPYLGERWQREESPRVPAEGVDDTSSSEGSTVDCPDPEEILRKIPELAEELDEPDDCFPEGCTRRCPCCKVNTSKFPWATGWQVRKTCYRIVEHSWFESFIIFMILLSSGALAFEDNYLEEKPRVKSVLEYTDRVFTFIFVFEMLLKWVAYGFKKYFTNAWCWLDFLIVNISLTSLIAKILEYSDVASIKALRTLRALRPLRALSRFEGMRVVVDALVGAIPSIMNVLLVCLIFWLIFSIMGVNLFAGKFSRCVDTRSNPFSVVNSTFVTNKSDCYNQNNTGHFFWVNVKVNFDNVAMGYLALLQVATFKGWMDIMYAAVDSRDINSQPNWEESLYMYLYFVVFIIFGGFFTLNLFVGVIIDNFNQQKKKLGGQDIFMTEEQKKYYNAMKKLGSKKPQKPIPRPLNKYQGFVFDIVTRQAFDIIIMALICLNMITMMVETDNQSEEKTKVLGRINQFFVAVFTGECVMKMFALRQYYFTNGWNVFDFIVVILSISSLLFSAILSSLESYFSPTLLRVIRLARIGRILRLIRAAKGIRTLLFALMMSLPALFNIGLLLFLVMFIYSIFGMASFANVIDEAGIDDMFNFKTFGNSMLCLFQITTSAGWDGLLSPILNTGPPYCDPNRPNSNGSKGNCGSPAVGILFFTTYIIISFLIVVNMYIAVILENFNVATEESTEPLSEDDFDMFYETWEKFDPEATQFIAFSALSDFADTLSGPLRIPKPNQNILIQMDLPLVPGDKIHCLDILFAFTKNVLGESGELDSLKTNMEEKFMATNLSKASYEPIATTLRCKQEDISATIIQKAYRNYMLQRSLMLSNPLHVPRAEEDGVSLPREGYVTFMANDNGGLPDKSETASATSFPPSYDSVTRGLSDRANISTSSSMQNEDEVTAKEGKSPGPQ

CC(C)(C)c1ccc(/C=C/C(=O)Nc2ccc3c(c2)OCCO3)cc1 [AMG9810]
effect of antagonist pretreatment on amitriptyline-induced calcium ion mobilization (TRPV1; 5-min pretreatment, 10 μM TRPV1 antagonist): had no effect

CN(C)CCC=C1c2ccccc2CCc2ccccc21 [amitriptyline, Amitriptyline]
potentiation of DRG neuron activation induced by TRPV1 agonist (TRPV1; 0.01 mM, 5-min incubation, 62 nM capsaicin): did not potentiate | time of washout to reversal of inhibition (C, Aδ and Aβ fibers): 30 to 35 min | firing in a C-type mechanonociceptor fiber, representative recording (C fibers; 11.4 mN stimulation, 100 μM, 10 min superfusion): Full inhibition of firing | IC50 (C fibers; [5]): ~15 µM | inhibition at 100 µM (C fibers; [6]): 95.6% | discharge of a low-threshold Aβ mechanoreceptor, representative recording (Aβ fibers; 1 mN stimulus, 100 μM, 5 and 10 min superfusion): inhibition was not complete | reversal of inhibition after washout, Aβ mechanoreceptor (Aβ fibers; 30 min washout after 100 μM): partially reversed | IC50 (Aβ fibers; [5]): ~26 µM | inhibition at 100 µM (Aβ fibers; [6]): 82.5% | IC50 (Nav1.8): 4.25 ± 0.4 µM | time to increase in intracellular calcium ions (mouse DRG neurons; 0.1 mM): ≤ 10 s | time to plateau of intracellular calcium ion amplitude curve (mouse DRG neurons; 0.1 mM): around 20 seconds | IC50 (mouse DRG neurons; Mus musculus, DRG neuron, 0.01 mM-1 mM, read-out: IC50, percentage of DRG neurons displaying intracellular calcium mobilization): 50 µM | plasma half-life [1]: 9 to 36 h | IC50 (Aδ fibers; skin superfusion 10 min, 10-100 μM, read-out: IC50, inhibition of mechanically induced firing): ~16 µM | inhibition at 100 µM (Aδ fibers; 100 μM, 10 min application to the skin preparation, read-out: Mean inhibition of evoked firing): 87.5% | IC50 [2]: 62 ± 0.5 µM | potentiation of DRG neuron activation induced by TRPA1 agonist (TRPA1; 0.01 mM, 5-min incubation, 50 μM AITC): did not potentiate | time to reversal of inhibition [3]: ≤ 20 ± 2 min | IC50 (Nav1.9): 15.6 ± 0.5 µM | IC50 (hNav1.7): 4.25 ± 0.4 µM | amitriptyline bioavailability ([4]; 10 mg of 10% cream per cell, 16 hours): 22.5 µg | amitriptyline present in the epidermis ([4]; compared with dermis, 10% cream, 16 hours): 26% | amitriptyline present in the dermis ([4]; compared with epidermis, 10% cream, 16 hours): Approximately 74% | passage into the bloodstream ([4]; relative to the amount of amitriptyline present in the composition): less than 0.1% | efficacy in the treatment of neuropathic pain (neuropathic pain): not efficacious

CC(C)c1ccc(NC(=O)Cn2cnc3c2c(=O)n(C)c(=O)n3C)cc1 [HC30301]
effect of antagonist pretreatment on amitriptyline-induced calcium ion mobilization (TRPA1; 5-min pretreatment, excess of TRPA1 antagonist): led to inhibition of amitriptyline-induced calcium ion mobilization
